Results taken from publication PMC10604720, “Unraveling the Mechanism of Epichaperome Modulation by Zelavespib: Biochemical Insights on Target Occupancy and Extended Residence Time at the Site of Action” (Biomedicines, 2023).

Tests used:
[1] = system: chaperone assemblies; assay: Kinetics of chaperone-zelavespib assembly taken from Phase 1 clearance; parameters: species or system mouse; conditions: in vivo, fast off-rate
Method: Figure 1 Biodistribution of zelavespib in MDA-MB-468 tumor-bearing mice. (a) Biodistribution of [^124I]-Zelavespib in MDA-MB-468 tumors, organs, tissues, and plasma as per ref. [32]. Data are presented as means ± s.d., five mice per time point. Curves for blood, lung, heart, muscle, bone, and brain were fitted using a one-phase decay equation, and kinetics of zelavespib clearance were determined. Tumor curve was fitted to a two-phase exponential decay. k, kfast, and kslow are the rate constants. Half-life (T1/2) is computed as ln(2)/k. […] (b) Illustrative schematic showing the distinct binding kinetics of zelavespib to epichaperomes (slow off-rate) and to chaperone assemblies (fast off-rate). The tumor pharmacokinetics profile recorded in the Phase 2 interval may represent a direct reflection of the in vivo kinetics of target–drug unbinding. koff, kinetic rate constant for dissociation of an epichaperome-zelavespib assembly. Rt, retention time. […]

[2] = system: epichaperomes; assay: Epichaperome determination by native PAGE / SDS-PAGE immunoblotting of MDA-MB-468 tumors; type: in vivo, mouse
Method: For epichaperome analysis, tumors were cut into small pieces and homogenized in native lysis buffer (20 mM HEPES pH 7.5, 50 mM KCl, 5 mM MgCl2, 0.01% NP40, 20 mM Na2MoO4) containing protease and phosphatase inhibitors using BioMasher® II Micro Tissue Homogenizers (VWR, Radnor, PA, USA). Samples were left on ice for 30 min and then subjected to native PAGE analysis. Protein concentrations were determined using the BCA kit (Pierce, Waltham, MA, USA) according to the manufacturer’s instructions. Protein lysate (10–60 µg) was loaded onto 5.5% native gel and resolved at 4 °C, transferred to nitrocellulose membrane, and probed with the indicated primary antibodies: HSP90α (AB2928; RRID:AB_303423; 1:8000) from Abcam (Cambridge, UK), HOP (ADI-SRA-1500; RRID:AB_10618972; 1:1000) from Enzo and CDC37 (4793S; RRID:AB_10695539; 1:1000) from Cell Signaling (Danvers, MA, USA). Membranes were then incubated with a 1:5000 dilution of a peroxidase-conjugated corresponding secondary antibody. Detection was performed using the ECL Enhanced Chemiluminescence Detection System (Pierce™ ECL Western Blotting Substrate) according to the manufacturer’s instructions.
In cellular studies, it has been proposed that zelavespib, upon binding, becomes trapped inside the epichaperome assemblies, leading to the disassembly of epichaperomes into individual components. However, this biochemical mechanism’s impact on the residence time of zelavespib at the site of action remains poorly understood in vivo. To investigate this, we analyzed the epichaperome target in tumors at 30 h and 72 h post-zelavespib administration using non-denaturing electrophoresis (native PAGE) (Figure 4a–c).
Figure 4 Epichaperome modulation by zelavespib in MDA-MB-468 tumor-bearing mice. (a) native-PAGE (top) or SDS-PAGE (bottom) followed by immunoblotting of epichaperome components (i.e., constituent chaperones and co-chaperones) in MDA-MB-468 tumors. Tumor-bearing mice were injected with a single dose of 50 mg/kg zelavespib, and tumor analysis was performed after sacrificing the mice at 30 h and 72 h post-zelavespib administration (n = 5 mice per time-point). Gels, representative tumors. To account for tumor heterogeneity (i.e., MDA-MB-468 are aggressive tumors with highly proliferative periphery adjacent to areas of necrosis), several cuts from the same tumor were analyzed when tumor size permitted. β-actin and GAPDH, protein loading controls; black arrowhead, biochemical signature of folding HSP90 pools as detected by native PAGE separation and immunoblotting; red arrowhead, non-specific signal, LE, low exposure; HE, high exposure. (b) Graph, data are presented as means ± s.e.m., n = 7, one-way ANOVA with Dunnett’s post hoc of tumors as in a. Because HSP90 in epichaperomes was not well separated from the folding HSP90 pool, we performed epichaperome quantification using CDC37 in epichaperomes as a surrogate marker. (c) Cartoon showing the proposed biochemical mechanism in vivo. Initially, zelavespib becomes trapped when epichaperomes bound, a mechanism that results in epichaperome disassembly, with no change in the expression level of epichaperome constituents. We propose that the initial trapping stage of epichaperomes is a main contributing factor to the extended on-target residence time observed for this agent in clinical settings. Zelavespib’s residence time in tumors seems to be dictated by target disassembly kinetics rather than by frank drug–target unbinding kinetics.

[3] = parameters: method as in PMID 28808818; conditions: human patients, no dependency on dose level; cited from earlier work

CC(C)NCCCn1c(Sc2cc3c(cc2I)OCO3)nc2c(N)ncnc21 [zelavespib]
T1/2, chaperone-zelavespib assembly [1]: ~ 3 h
k Phase 1, chaperone-zelavespib assembly [1]: ~ 0.2 h^-1
total chaperone levels on SDS-PAGE ([2]; 30 h post single 50 mg/kg): no corresponding alteration
increase in epichaperome signal on native PAGE compared to baseline ([2]; 30 h post single 50 mg/kg, CDC37 in epichaperomes as surrogate marker): ~2.29 fold
decrease of epichaperome levels compared to baseline ([2]; 72 h post single 50 mg/kg): approximately 1.8 fold
total chaperone levels on SDS-PAGE ([2]; 72 h post single 50 mg/kg): no observable change
decrease in epichaperome signal on native PAGE compared to 30 h ([2]; 72 h post single 50 mg/kg, CDC37 in epichaperomes as surrogate marker): approximately 4.15 fold
baseline epichaperome target remaining in tumors ([2]; 72 h post-zelavespib administration): approximately 24.09%
mean terminal half-life (T1/2) in the plasma [3]: 8.4 ± 3.6 h
